Data published in patent EP4603105A1, “PHARMACEUTICAL COMPOSITION CONTAINING CYCLIC COMPOUND HAVING SELECTIVE KRAS INHIBITORY EFFECT AGAINST HRAS AND NRAS” (CHUGAI SEIYAKU KABUSHIKI KAISHA, priority 2022, dated 2024).

Experiments:
HRAS wild-type protein = HRAS wild-type protein (Homo sapiens, UniProt P01112); test: Binding to HRAS by surface plasmon resonance (SPR), KD and KD ratio to KRAS; conditions: ratio of KD with respect to HRAS wild-type protein to KD with respect to KRAS
Outline: (§1)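 Biotinylated GDP-bound RAS was captured at about 100–300 RU. Running buffer: HBS pH 7.4, 10 mM MgCl2, 10 µM GDP, 1 mM DTT, 0.01% Tween 20, 4% DMSO.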

[1] = biological target: GDP-bound NRAS wild-type protein (Homo sapiens, UniProt P01111); test: Binding to NRAS by surface plasmon resonance (SPR), KD and KD ratio to KRAS; conditions: ratio of KD with respect to GDP-bound NRAS wild-type protein to KD with respect to KRAS
Outline: as §1

[2] = biological target: GDP-bound KRAS wild-type protein (Homo sapiens, UniProt P01116); test: Binding to KRAS by surface plasmon resonance (SPR), dissociation constant KD; conditions: Single Cycle Kinetics, 1:1 binding model
Outline: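 Read-out is KD from 1:1 fitting of single-cycle kinetics sensorgrams, blank-cycle and reference-surface corrected. Proteins were GDP-loaded, biotinylated Avi-fusions freshly captured each cycle at roughly 100–300 RU. Runs were at 30°C in HBS pH 7.4 with MgCl2, GDP and 4% DMSO.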

[3] = tested on: human lung cancer strain NCI-H441; test: NCI-H441 cell proliferation inhibitory activity (CellTiter-Glo, 4 days); assay type: cell-based; conditions: 50% proliferation inhibitory concentration, four days, read-out: NCl-H441 IC50
Outline: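 Step one: dispense the test compound in serial DMSO dilutions. Step three: add the reagent and measure […].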

GDP-bound KRAS wild-type protein, sequence (P01116 1-188 isoform P01116-2): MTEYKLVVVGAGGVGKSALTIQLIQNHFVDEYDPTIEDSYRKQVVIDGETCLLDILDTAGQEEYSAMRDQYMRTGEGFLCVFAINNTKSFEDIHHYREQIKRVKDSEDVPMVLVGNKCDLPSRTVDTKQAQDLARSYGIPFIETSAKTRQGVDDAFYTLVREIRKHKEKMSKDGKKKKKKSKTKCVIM
HRAS wild-type protein, sequence (P01112 whole entry): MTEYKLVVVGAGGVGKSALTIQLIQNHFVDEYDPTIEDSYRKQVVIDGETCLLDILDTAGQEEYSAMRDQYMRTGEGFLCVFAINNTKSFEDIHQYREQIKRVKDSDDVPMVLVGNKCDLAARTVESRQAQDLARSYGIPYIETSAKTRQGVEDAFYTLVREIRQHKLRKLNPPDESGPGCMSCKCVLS
GDP-bound NRAS wild-type protein, sequence (P01111 whole entry): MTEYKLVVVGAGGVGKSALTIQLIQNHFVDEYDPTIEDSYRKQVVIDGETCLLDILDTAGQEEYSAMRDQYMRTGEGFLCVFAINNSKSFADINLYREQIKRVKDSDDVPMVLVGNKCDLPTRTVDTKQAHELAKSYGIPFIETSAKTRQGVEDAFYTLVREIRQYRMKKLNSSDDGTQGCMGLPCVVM

SMILES	HRAS /KRAS (HRAS wild-type protein)	NRAS /KRAS [1]	Kd [2] [nM]	IC50 [3] [nM]
CCO[C@@H]1C[C@H]2C(=O)NC3(CCC3)C(=O)N(C)[C@@H](C3CCCC3)C(=O)N(C)[C@H](C(=O)N(C)C)CC(=O)N(C)[C@@H](CC3CC3)C(=O)N[C@@H]([C@@H](C)CC)C(=O)N(C)CC(=O)N(C)[C@H]3C/C=C\CCN(C3=O)[C@@H](Cc3ccc(C(F)(F)F)cc3)C(=O)N(C)CC(=O)N[C@@H](CCc3ccc(Cl)c(Cl)c3)C(=O)N2C1 [PP1253]	A (a compound having 10 or more and less than 20 is denoted as A)	A (a compound having 10 or more and less than 20 is denoted as A)	0.2	22.2
CCO[C@@H]1C[C@H]2C(=O)NC3(CCC3)C(=O)N(C)[C@@H](C3CCCC3)C(=O)N(C)[C@H](C(=O)N(C)C)CC(=O)N(C)[C@@H](CC3CCCC3)C(=O)N[C@@H]([C@@H](C)CC)C(=O)N(C)CC(=O)N(C)[C@H]3C/C=C\CCN(C3=O)[C@@H](Cc3ccc(C(F)(F)F)cc3)C(=O)N(C)CC(=O)N[C@@H](CCc3ccc(Cl)c(Cl)c3)C(=O)N2C1 [PP1254]	A (a compound having 10 or more and less than 20 is denoted as A)	AA (a compound having 20 or more is denoted as AA)	0.2	28.3
CCC[C@H]1C(=O)N[C@@H]([C@@H](C)CC)C(=O)N(C)CC(=O)N(C)[C@H]2C/C=C\CCN(C2=O)[C@@H](Cc2ccc(C(F)(F)F)cc2)C(=O)N(C)CC(=O)N[C@@H](CCc2ccc3sccc3c2)C(=O)N2C[C@H](OCC)C[C@H]2C(=O)NC2(CCC2)C(=O)N(C)[C@@H](C2CCCC2)C(=O)N(C)[C@H](C(=O)N(C)C)CC(=O)N1C [PP1256]	A (a compound having 10 or more and less than 20 is denoted as A)	A (a compound having 10 or more and less than 20 is denoted as A)	0.36	69
CCCCCC[C@H]1C(=O)N[C@@H]([C@@H](C)CC)C(=O)N(C)CC(=O)N(C)[C@H]2C/C=C\CCN(C2=O)[C@@H](Cc2ccc(C(F)(F)F)cc2)C(=O)N(C)CC(=O)N[C@@H](CCc2ccc3sccc3c2)C(=O)N2C[C@H](OCC)C[C@H]2C(=O)NC2(CCC2)C(=O)N(C)[C@@H](C2CCCC2)C(=O)N(C)[C@H](C(=O)N(C)C)CC(=O)N1C [PP1259]	A (a compound having 10 or more and less than 20 is denoted as A)	A (a compound having 10 or more and less than 20 is denoted as A)	0.49	62
CCO[C@@H]1C[C@H]2C(=O)NC3(CCC3)C(=O)N(C)[C@@H](C3CCCC3)C(=O)N(C)[C@H](C(=O)N(C)C)CC(=O)N(C)[C@@H](CC3CCCC3)C(=O)N[C@@H]([C@@H](C)CC)C(=O)N(C)CC(=O)N(C)[C@H]3C/C=C\CCN(C3=O)[C@@H](Cc3ccc(C(F)(F)F)cc3)C(=O)N(C)CC(=O)N[C@@H](CCc3ccc4sccc4c3)C(=O)N2C1 [PP1261]	A (a compound having 10 or more and less than 20 is denoted as A)	A (a compound having 10 or more and less than 20 is denoted as A)	0.44	76.8
CCO[C@@H]1C[C@H]2C(=O)NC3(CCC3)C(=O)N(C)[C@@H](C3CCCC3)C(=O)N(C)[C@H](C(=O)N(C)C)CC(=O)N(C)[C@@H](CC(C)C)C(=O)N[C@@H]([C@@H](C)CC)C(=O)N(C)CC(=O)N(C)[C@H]3C/C=C\CCN(C3=O)[C@@H](Cc3ccc(C(F)(F)F)cc3)C(=O)N(C)CC(=O)N[C@@H](CCc3cc(F)c(Cl)c(F)c3)C(=O)N2C1 [PP1263]	A (a compound having 10 or more and less than 20 is denoted as A)	A (a compound having 10 or more and less than 20 is denoted as A)	0.23	18.9
CCO[C@@H]1C[C@H]2C(=O)NC3(CCC3)C(=O)N(C)[C@@H](C3CCCC3)C(=O)N(C)[C@H](C(=O)N(C)C)CC(=O)N(C)[C@@H](CC)C(=O)N[C@@H]([C@@H](C)CC)C(=O)N(C)CC(=O)N(C)[C@H]3C/C=C\CCN(C3=O)[C@@H](Cc3ccc(C(F)(F)F)cc3)C(=O)N(C)CC(=O)N[C@@H](CCc3ccc(C(F)(F)F)c(C)c3)C(=O)N2C1 [PP1265]	B (a compound having 3 or more and less than 10 is denoted as B)	A (a compound having 10 or more and less than 20 is denoted as A)	0.17	14.1
CCOC[C@H]1C(=O)N[C@@H]([C@@H](C)CC)C(=O)N(C)CC(=O)N(C)[C@H]2C/C=C\CCN(C2=O)[C@@H](Cc2ccc(C(F)(F)F)cc2)C(=O)N(C)CC(=O)N[C@@H](CCc2cc(F)c(C(F)(F)F)c(F)c2)C(=O)N2C[C@H](OCC)C[C@H]2C(=O)NC2(CCC2)C(=O)N(C)[C@@H](C2CCCC2)C(=O)N(C)[C@H](C(=O)N(C)C)CC(=O)N1C [PP1266]	A (a compound having 10 or more and less than 20 is denoted as A)	A (a compound having 10 or more and less than 20 is denoted as A)	0.045	12.2
CCO[C@@H]1C[C@H]2C(=O)NC3(CCC3)C(=O)N(C)[C@@H](C3CCCC3)C(=O)N(C)[C@H](C(=O)N(C)C)CC(=O)N(C)[C@@H](COCC(F)(F)F)C(=O)N[C@@H]([C@@H](C)CC)C(=O)N(C)CC(=O)N(C)[C@H]3C/C=C\CCN(C3=O)[C@@H](Cc3ccc(C(F)(F)F)cc3)C(=O)N(C)CC(=O)N[C@@H](CCc3cc(F)c(C(F)(F)F)c(F)c3)C(=O)N2C1 [PP1267]	A (a compound having 10 or more and less than 20 is denoted as A)	A (a compound having 10 or more and less than 20 is denoted as A)	0.046	10.8
CCO[C@@H]1C[C@H]2C(=O)NC3(CCC3)C(=O)N(C)[C@@H](C3CCCC3)C(=O)N(C)[C@H](C(=O)N(C)C)CC(=O)N(C)[C@@H](COC3CC3)C(=O)N[C@@H]([C@@H](C)CC)C(=O)N(C)CC(=O)N(C)[C@H]3C/C=C\CCN(C3=O)[C@@H](Cc3ccc(C(F)(F)F)cc3)C(=O)N(C)CC(=O)N[C@@H](CCc3cc(F)c(C(F)(F)F)c(F)c3)C(=O)N2C1 [PP1268]	A (a compound having 10 or more and less than 20 is denoted as A)	A (a compound having 10 or more and less than 20 is denoted as A)	0.045	12.1
CC[C@H](C)[C@@H]1NC(=O)[C@H](C)N(C)C(=O)C[C@@H](C(=O)N(C)C)N(C)C(=O)[C@H](C2CCCC2)N(C)C(=O)C2(CCC2)NC(=O)[C@@H]2CCCN2C(=O)[C@H](CCc2cc(F)c(C(F)(F)F)c(F)c2)NC(=O)CN(C)C(=O)[C@H](Cc2ccc(C(F)(F)F)cc2)N2CC/C=C\C[C@@H](C2=O)N(C)C(=O)CN(C)C1=O [PP1271]	A (a compound having 10 or more and less than 20 is denoted as A)	AA (a compound having 20 or more is denoted as AA)	0.054	90.7
CC[C@H](C)[C@@H]1NC(=O)[C@H](CC(C)C)N(C)C(=O)C[C@@H](C(=O)N(C)C)N(C)C(=O)[C@H](C2CCCC2)N(C)C(=O)C2(CCC2)NC(=O)[C@@H]2CCCN2C(=O)[C@H](CCc2cc(F)c(C(F)(F)F)c(F)c2)NC(=O)CN(C)C(=O)[C@H](Cc2ccc(C(F)(F)F)cc2)N2CC/C=C\C[C@@H](C2=O)N(C)C(=O)CN(C)C1=O [PP1272]	A (a compound having 10 or more and less than 20 is denoted as A)	A (a compound having 10 or more and less than 20 is denoted as A)	0.11	24
CC[C@H](C)[C@@H]1NC(=O)[C@H](CC)N(C)C(=O)C[C@@H](C(=O)N(C)C)N(C)C(=O)[C@H](C2CCCC2)N(C)C(=O)C2(CCCC2)NC(=O)[C@@H]2CCCN2C(=O)[C@H](CCc2cc(F)c(C(F)(F)F)c(F)c2)NC(=O)CN(C)C(=O)[C@H](Cc2ccc(C(F)(F)F)cc2)N2CC/C=C\C[C@@H](C2=O)N(C)C(=O)CN(C)C1=O [PP1273]	B (a compound having 3 or more and less than 10 is denoted as B)	A (a compound having 10 or more and less than 20 is denoted as A)	0.12	16.5
CCO[C@@H]1C[C@H]2C(=O)NC3(CCCC3)C(=O)N(C)[C@@H](C3CCCC3)C(=O)N(C)[C@H](C(=O)N(C)C)CC(=O)N(C)[C@@H](CC)C(=O)N[C@@H]([C@@H](C)CC)C(=O)N(C)CC(=O)N(C)[C@H]3C/C=C\CCN(C3=O)[C@@H](Cc3ccc(C(F)(F)F)cc3)C(=O)N(C)CC(=O)N[C@@H](CCc3cc(F)c(C(F)(F)F)c(F)c3)C(=O)N2C1 [PP1276]	B (a compound having 3 or more and less than 10 is denoted as B)	A (a compound having 10 or more and less than 20 is denoted as A)	0.066	20.8
